For series [1], the system named is Human C-peptide / insulin-expressing cells (H1-derived pancreatic progenitors). Briefly: High-content screen 2 and dose response: insulin-expressing cells by immunofluorescence (Cellomics). The series is classed as cell-based. Conditions: for auto-fluorescence and toxicity in dose-curve measurements: at 6.75 M and 27 M. As to the method:
hESC culture and differentiation. Protocol 2. Human ESCs were routinely cultured on hESC-certified matrigel (BD Biosciences) in mouse embryonic fibroblast conditioned hES media (MEF-CM). MEF-CM media was produced by conditioning hESC media for […] on a confluent layer of mouse embryonic fibroblasts and subsequently adding 20 ng/ml bFGF (Invitrogen). hES media was composed of DMEM/F12 (GIBCO) media supplemented with 20% KnockOut Serum Replacement (GIBCO), 2 mM Lglutamine (L-Glu, GIBCO), 1.1 mM 2-mercaptoethanol (GIBCO), 1 mM nonessential amino acids (GIBCO), 1× penicillin/strepto-mycin (P/S,GIBCO). Cells were passaged at the ratio of 1:6-1:20 every 4-7 days using TrypLE Express (Invitrogen).
To initiate differentiation the cells were dissociated using TrypLE Express to single cells and seeded at 150,000 cell/cm2 onto 1:30 dilution of growth factor reduced matrigel (BD Biosciences) in DMEM/F12 in MEF-CM media with 10 μM Y27632 (StemGent). Two days following seeding the differentiation was started. Cells were exposed to RPMI 1640 (Invitrogen) supplemented with 2% reagent grade BSA (Proliant) and 20 ng/ml human Wnt3a (R&D Systems)+100 ng/ml rhActivinA (R&D Systems)+8 ng/ml bFGF (Invitrogen) for the first day (stage 1.1). During day 2 and 3 the dayl media was used with the exception of Wnt3a (stage 1.2). During days 4-5 cells were treated with RPMI+2% BSA+50 ng/ml FGF7 (Peprotech) (stage 2). For days 6-9 cells were treated with DMEM-HG (Invitrogen)+0.1% Albumax BSA (Invitrogen)+1:200 ITS-X (Invitrogen)+50 ng/ml FGF7 (Peprotech)+2 μM RA (Sigma)+0.25 μM SANT-1 (Sigma)+20 ng/ml rhActivinA (R&D Systems)+100 ng/ml rhNoggin (R&D Systems) (stage 3). During days 10-12 cells were treated with DMEM-HG (Invitrogen)+0.1% Albumax BSA (Invitrogen)+1:200 ITS-X (Invitrogen)+100 ng/ml rhNoggin (R&D Systems)+0.25 μM SANT-1 (Sigma)+100 nM PDBu (EMD Biosciences) (stage 4). During days 13-15 cells were treated with DMEM-HG (Invitrogen)+0.1% Albumax BSA (Invitrogen)+1:200 ITS-X (Invitrogen)+100 ng/ml rhNoggin (R&D Systems)+1 μM Alk5 inhibitor (Axxora) (stage 5). PKC inhibitor Bisindolylmaleimide I (VWR) was added during stage 5.
High-content screen 2. The compound libraries used for this study: 400 compounds, including bioactive molecules, natural products, and 400 compounds that are known modulators of development or signaling pathways. For the chemical screen the day 8 cells were dispersed into single cells, using TrypLE, and replated at 150,000 cells/well of a 96 well plate in the presence of stage 3 media and 10 μM Y27632. Compounds were added to the wells on day 10 in stage 4 media, then again on days 12 and 14 in stage 5 media. Media was changed every other day suing the treatment. Cells were fixed using 4% paraformaldehyde (PFA, Sigma) on day 15 and stained using mouse antiglucagon and rabbit anti-c-peptide antibodies.
Screen 2: Immunostaining. Following 4% PFA fixation, cells were 3×5 min washed in PBS and blocked with 10% donkey serum (Jackson Immunoresearch) in PBS/0.3% Triton X. Primary antibodies were incubated overnight at 4 C. Secondary antibodies were incubated for 1 hr at room temperature. […]

The test system of series [2] is INS, GCG and SST transcripts (H1-derived pancreatic progenitors). As to the kind of experiment: qRT-PCR of endocrine hormone transcripts (INS, GCG, SST). The series is classed as cell-based, human. Conditions: 3 day treatment. The text has this:
FIGS. 3A-3D show PKC agonists block the formation of insulin-expressing cells. […] Wells were stained for insulin and cell number counted in representative portions of the well by the Cellomics high content screening system. Error bars represent s.d. Two-tailed T-test p<0.05. […] Endocrine induction is blocked by PKC agonist TPB and reversed by Bis1. […] P<0.001. The decrease in INS and GCG expression due to TPB treatment is reversed by BisI. […] P<0.001.
H1-derived pancreatic progenitors were treated for 3 days with DMSO or 3 μM BisI. qRT-PCR for INS, GCG and SST performed and shown as fold change over DMSO control.
For orientation: In qPCR the cycle at which signal appears reflects the starting amount.

Series [3] relates to HUES8 pancreatic progenitors. As to the kind of experiment: Insulin cell number in HUES8 pancreatic progenitors in the presence of Noggin and Alk5 inhibitors. The series is classed as cell-based, human. Conditions: HUES8, 6 days, in the presence of Noggin and Alk5 inhibitor, versus DMSO. The text has this: FIGS. 1A-1K show high-content screens to increase the number of NGN3-expressing and insulin-expressing cells. FIG. 1A is a schematic showing the stepwise differentiation from hESCs to pancreatic endocrine cells. DE, definitive endoderm; PP, pancreatic progenitor; EP, endocrine progenitor; EN, endocrine cells. Scheme of high-content screen beginning with a population of cells that have differentiated into pancreatic progenitors. FIGS. 1B and 1F are schematic diagrams showing the method of high-content screen, which begins with a population of cells that have differentiated into pancreatic progenitors. FIGS. 1C and 1G show the chemical structures of a PKCβ inhibotor and Bisindolylmaleimide I compound identified from the screen. FIGS. 1D and 1H show an efficacy curve of the hit compounds. […] The hit compounds effect on HUES 8-pancreatic progenitor population. After 14 d of differentiation, the HUES 8-pancreatic progenitor populations were treated with 10 M PKCβ inhibitor for four days and then stained with NGN 3 antibody (green). NGN3, neurogenin 3. Scale bar is 100 m. […] Percentage of insulin-positive cells with s.d. […] The percentage of NGN3^+ cells was analyzed with the Cellomics high content screening system (Thermo Scientific). […] Insulin cell number with was counted over the same area in different wells. […]

As a reminder, the EC50 is the concentration needed to bring the measured effect to its halfway point.

As for `CCCC(=O)O[C@@H]1[C@@H](C)[C@@]2(O)[C@@H](C=C(CO)C[C@]3(O)C(=O)C(C)=C[C@@H]23)[C@@H]2C(C)(C)[C@]12OC(=O)CCC` [PdBu, phorbol 12,13-dibutyrate], the “decline in endocrine differentiation, number of insulin+ cells” value in series [1] (three-day treatment of H1-derived pancreatic progenitors (FIG. 3A: 1 M, 6 days)) is on record as 3.7 fold.

Turning to `CN(C)CCCn1cc(C2=C(c3c[nH]c4ccccc34)C(=O)NC2=O)c2ccccc21` [BisI, Bisindolylmaleimide I], the insulin-expressing cells result in series [1] (1 M BisI, 6 days, DMSO-treated controls 0.9 0.1%) is “up to 2.7 0.8%”. Also, the EC50 in series [1] (Homo sapiens, H1, with Noggin and Alk5 inhibitor, FIG. 1H, read-out: EC50, total number of insulin-expressing cells) was determined as 848 nM. The “auto-fluorescence and toxicity in dose-curve measurements” value was “Significant auto-fluorescence and toxicity” in series [1]; “considerable auto-fluorescence and toxicity” in series [1] (listed as Bisindolylmaleimide I). Besides, in series [2] (3 M BisI + 5 M TPB), the “effect of TPB on INS and GCG expression in the presence of BisI” value was “reversed”. Besides, the “increase of the numbers of insulin-expressing cells” value in series [3] is “up to 7.5 fold”.

As to `CC(C)[C@H]1C(=O)N[C@H](CO)Cc2cc(NC(=O)/C=C/C=C/c3ccc(C(F)(F)F)cc3)ccc2N1C` [TPB, (2S,5S)-(E,E)-8-(5-(4-(trifluoromethyl)phenyl)-2,4-pentadienoylamino)benzolactam], the “expression of endocrine hormones insulin and glucagon” value in series [2] (5 M TPB) is recorded as “decrease”. Moreover, the “effect on endocrine induction by Alk5 inhibitor (INS and GCG transcripts)” value in series [2] (TPB combined with Alk5 inhibitor) was “sufficient to block the effect of Alk5 inhibitors on endocrine induction”.

The values are drawn from patent US10941384B2, “Compositions and methods for promoting the generation of endocrine cells” (President and Fellows of Harvard College, priority 2013, dated 2021).
